A short description of the data set: Water solubility of selodenoson. It counts as physicochemical.

SMILES strings stand for the structures.

In the case of `CCNC(=O)[C@H]1O[C@@H](n2cnc3c(NC4CCCC4)ncnc32)[C@H](O)[C@@H]1O` [selodenoson, N^6-cyclopentyl-5′-(N-ethyl)carboxamidoadenosine], the solubility in water result (water) is listed as “soluble in water”. Also, the “solubility in water under acidic conditions” value (water under acidic conditions) is “highly soluble in water under acidic conditions”.

These data come from patent publication US20050118262A1, “Controlled release formulation” (priority 2003, published 2005).
